Where two headings read alike, the source gives them in different places.
Target: T1, FAAH (Rattus norvegicus, UniProt P97612)
T1 construct: Preparation of Rat Brain Membranes Preparations (FAAH Enzyme Solution); from tissue; host or cells: rat cerebrum (brain membrane preparation)
T1 sequence (P97612 1-579): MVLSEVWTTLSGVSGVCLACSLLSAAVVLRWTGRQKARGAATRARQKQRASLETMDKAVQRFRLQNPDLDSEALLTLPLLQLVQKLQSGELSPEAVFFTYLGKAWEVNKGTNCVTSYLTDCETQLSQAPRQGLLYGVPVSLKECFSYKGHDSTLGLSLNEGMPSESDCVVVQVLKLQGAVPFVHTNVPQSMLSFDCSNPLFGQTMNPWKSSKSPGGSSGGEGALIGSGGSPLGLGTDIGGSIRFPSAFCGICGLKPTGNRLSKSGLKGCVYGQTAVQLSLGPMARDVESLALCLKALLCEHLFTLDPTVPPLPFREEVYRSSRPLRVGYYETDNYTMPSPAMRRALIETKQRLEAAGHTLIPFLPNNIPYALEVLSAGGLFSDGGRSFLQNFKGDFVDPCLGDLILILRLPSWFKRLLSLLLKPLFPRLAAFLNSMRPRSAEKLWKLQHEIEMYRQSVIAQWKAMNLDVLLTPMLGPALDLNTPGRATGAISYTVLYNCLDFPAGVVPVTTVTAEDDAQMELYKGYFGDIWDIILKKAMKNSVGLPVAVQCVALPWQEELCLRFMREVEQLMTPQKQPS
Assay: Determination of FAAH inhibitory activity in rat (rat brain membrane preparations, [3H]-anandamide hydrolysis)
Type: biochemical
Conditions: rat brain membrane preparations; for IC50: read-out: FAAH Inhibition IC50
Procedure, shortened: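 Rat cerebrum membranes (100 μg/mL protein) preincubated 10 min at 37 °C with compound (1% DMSO) in pH 7.6 Tris buffer with 1.5% BSA. Substrate 2 nM [3H]-anandamide plus 2 μM anandamide added for 10 min at 37 °C. [3H]-ethanolamine in the aqueous phase after chloroform/methanol extraction was scintillation counted; IC50 over 0.1 nM–1 μM.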

[1] = 100 nM test substance, read-out: FAAH Inhibition, Inhibition Rate at 100 nM

Structure (SMILES)	inhibition at 0.1 µM [1]	IC50 (test substance 0.1 nM to 1 μM)	inhibition at 0.1 µM (at 100 nM, read-out: FAAH Inhibition Inhibition Rate at 100 nM)	IC50	FAAH Inhibition, Inhibition Rate at 100 nM (100 nM test substance, 0.1 µM)
Cn1c(=O)n(C(=O)N2CCC2)c2nc(COc3ccccc3)ncc21 [Example 415]	41%	148 nM			
COc1cccc(-c2ncc3c(n2)n(C)c(=O)n3C(=O)N(C)CCc2ccc(C(F)(F)F)cc2)c1 [Example 92, 2-(3-Methoxyphenyl)-N,9-dimethyl-8-oxo-N-{2-[4-(trifluoromethyl)phenyl]ethyl}-8,9-dihydro-7H-purine-7-carboxamide]	103%	4 nM			
COc1cccc(Cc2ncc3c(n2)n(C)c(=O)n3C(=O)N2CCCC2)c1 [Example 261, 2-(3-Methoxybenzyl)-9-methyl-7-(pyrrolidin-1-ylcarbonyl)-7,9-dihydro-8H-purine-8-one]	100%	16 nM			
COC[C@H]1CCCN1C(=O)n1c(=O)n(C)c2nc(-c3ccccc3)ncc21 [Example 29]	67%	75 nM			
CCN(C)C(=O)n1c(=O)n(C)c2nc(-c3cccc(OC)c3)ncc21 [Example 60, N-Ethyl-2-(3-methoxyphenyl)-N,9-dimethyl-8-oxo-8,9-dihydro-7H-purine-7-carboxamide]	99%	6 nM			
CSc1ccc(-c2ncc3c(n2)n(C)c(=O)n3C(=O)N2CCCC2)cc1 [Example 183, 9-Methyl-2-[4-(methylsulfanyl)phenyl]-7-(pyrrolidin-1-ylcarbonyl)-7,9-dihydro-8H-purine-8-one]	101%	3 nM			
Cn1c(=O)n(C(=O)N2CCCC2)c2cnc(-c3cccc(F)c3)nc21 [Example 167, 2-(3-Fluorophenyl)-9-methyl-7-(pyrrolidin-1-ylcarbonyl)-7,9-dihydro-8H-purine-8-one]	101%	6 nM			
COc1cccc(-c2ncc3c(n2)n(C)c(=O)n3C(=O)N2CCN(c3ccc(Cl)cc3)CC2)c1 [Example 142, 7-{[4-(4-Chlorophenyl)piperazin-1-yl]carbonyl}-2-(3-methoxyphenyl)-9-methyl-7,9-dihydro-8H-purine-8-one]	99%	5 nM			

The remaining lines, values ahead:

inhibition at 0.1 µM [1]	IC50 (test substance 0.1 nM to 1 μM)	inhibition at 0.1 µM (at 100 nM, read-out: FAAH Inhibition Inhibition Rate at 100 nM)	IC50	FAAH Inhibition, Inhibition Rate at 100 nM (100 nM test substance, 0.1 µM)	Structure (SMILES)
122%	11 nM				COc1ccc(CCc2ncc3c(n2)n(C(=O)N(C)C)c(=O)n3C)cc1 [compound 544]
100%	10 nM				CN(C)C(=O)n1c(=O)n(C)c2cnc(CCc3ccccc3C(F)(F)F)nc21 [compound 542]
74%	43 nM				COCc1ncc2c(n1)n(C)c(=O)n2C(=O)N1CC[C@@H](Oc2ccccc2)C1 [Example 488, 2-(Methoxymethyl)-9-methyl-7-{[(3R)-3-phenoxypyrrolidin-1-yl]carbonyl}-7,9-dihydro-8H-purine-8-one]
110%	10 nM				COCc1ncc2c(n1)n(C)c(=O)n2C(=O)N1CC[C@H](Oc2ccccc2F)C1 [Example 483, 7-{[(3S)-3-(2-Fluorophenoxy)pyrrolidin-1-yl]carbonyl}-2-(methoxymethyl)-9-methyl-7,9-dihydro-8H-purine-8-one]
		94%	78 nM		CCCc1ncc2c(n1)n(C(=O)N1CC(c3ccc(F)cc3)C1)c(=O)n2C [Example 636]
105%	10 nM				CCOc1ccc(C2CN(C(=O)n3c(=O)n(C)c4nc(COC)ncc43)C2)cc1 [compound 445]
99%	38 nM				CCCc1ccc(-c2ncc3c(n2)n(C)c(=O)n3C(=O)N2CCCC2)cc1 [compound 180]
71%	54 nM				COCc1ncc2c(n1)n(C)c(=O)n2C(=O)N1CC[C@@H](Oc2ccccc2F)C1 [Example 474]
	55 nM			72%	CN(C)C(=O)n1c(=O)n(C)c2cnc(CCc3cc(F)cc(F)c3)nc21 [compound 528]
107%	9 nM				CCCc1cccc(CCc2ncc3c(n2)n(C(=O)N(C)C)c(=O)n3C)c1 [compound 518]

Reference: patent publication US8735406B2, “8-oxodihydropurine derivative” (Dainippon Sumitomo Pharma Co., Ltd., priority 2009, dated 2014)
